Results taken from patent publication US6344562B1, “Thiazole derivatives” (Hoffmann-La Roche Inc., priority 1998, dated 2002).
Structures can show the parent of a compound that is named as a salt.

melting point | SMILES
123 °C | CC(C)(C)OC(=O)C[C@H](NC(=O)CNC(=O)c1csc(NC(=O)NCc2ccccc2)n1)C(=O)NCc1ccccc1 [Example 129, tert-butyl (S)-N-benzyl-3-[2-[[2-(3-benzyl-ureido)-thiazole-4-carbonyl]-amino]-acetylamino]-succinamate]
111 to 114 °C | CC(C)(C)OC(=O)C[C@H](NC(=O)CNC(=O)c1csc(NC(=O)NCc2ccccc2)n1)C(=O)OC(C)(C)C (as salt: succinate) [Example 157, di-tert-butyl (S)-2-(2-{[2-(3-benzyl-ureido)-thiazole-4-carbonyl]-amino}-acetylamino)-succinate]
108 °C | CC(C)(C)OC(=O)C[C@H](NC(=O)CNC(=O)c1csc(NC(=O)NCc2ccccc2)n1)C(=O)NCc1ccccn1 [Example 161, tert-butyl (S)-3-[2-[[2-(3-benzyl-ureido)-thiazole-4-carbonyl]-amino]-acetylamino]-N-pyridin-2-ylmethyl-succinamate]
235 °C | N=C(N)Nc1nc(C(=O)Nc2cccc(C(=O)NC(CC(=O)O)c3ccccc3)c2)cs1 (racemic) [Example 19, (RS)-3-{3-[(2-guanidino-thiazole-4-carbonyl)-amino]-benzoylamino}-3-phenyl-propionic acid]
178 °C | O=C(O)CCCCCNC(=O)c1csc(NC(=O)NCc2ccccc2)n1 [Example 138, 6-{[2-(3-benzyl-ureido)-thiazole-4-carbonyl]-amino}-hexanoic acid]
185 °C | COc1cccc(NC(=O)[C@H](CC(=O)O)NC(=O)CNC(=O)c2csc(NC(=O)NCc3ccccc3)n2)c1 [Example 134, (S)-3-[2-[[2-(3-benzyl-ureido)-thiazole-4-carbonyl]-amino]-acetylamino]-N-(3-methoxy-phenyl)-succinamic acid]
157 °C | O=C(O)CCNC(=O)c1cccc(NC(=O)c2csc(NC(=O)NCc3ccccc3)n2)c1 [Example 170, 3-(3-{[2-(3-benzyl-ureido)-thiazole-4-carbonyl]-amino}-benzoylamino)-propionic acid]
128 °C | CCOC(=O)CC(CCCNC(=O)c1csc(NC(=O)NCc2ccccc2)n1)C(=O)NCc1ccccc1 (racemic) [Example 147, ethyl rac-3-benzylcarbamoyl-6-{[2-(3-benzyl-ureido)-thiazole-4-carbonyl]-amino}-hexanoate]
212 °C | CC(C)(C)OC(=O)CCNC(=O)c1cccc(NC(=O)c2csc(NC(=O)NCc3ccccc3)n2)c1 [Example 169, tert-butyl 3-(3-{[2-(3-benzyl-ureido)-thiazole-4-carbonyl]-amino}-benzoylamino)-propionate]
135 to 136 °C | CCOC(=O)CCCC(=O)CNC(=O)c1csc(NC(=O)NCc2ccccc2)n1 [Example 82, ethyl 6-{[2-(3-benzyl-ureido)-thiazole-4-carbonyl]-amino}-5-oxo-hexanoate]
187 °C | CCOC(=O)CCNC(=O)CNC(=O)c1csc(NC(=O)NCc2ccccc2)n1 [Example 131, ethyl 3-[2-[[2-(3-benzyl-ureido)-thiazole-4-carbonyl]-amino]-acetylamino]-propionate]
140 °C | COC(=O)CCCCCNC(=O)c1csc(NC(=O)NCc2ccccc2)n1 [Example 137, methyl 6-{[2-(3-benzyl-ureido)-thiazole-4-carbonyl]-amino}-hexanoate]
194 °C | CCOC(=O)CCc1ccc(NC(=O)c2csc(NC(=O)NCc3ccccc3)n2)cc1 [Example 153, ethyl 3-[4-[[2-(3-benzyl-ureido)-thiazole-4-carbonyl]-amino]-phenyl]-propionate]
185 °C | CC(C)(C)OC(=O)C[C@H](NC(=O)CNC(=O)c1csc(NC(=O)NCc2ccccc2)n1)C(=O)NCc1cccnc1 [Example 163, tert-butyl (S)-3-[2-[[2-(3-benzyl-ureido)-thiazole-4-carbonyl]-amino]-acetylamino]-N-pyridin-3-ylmethyl-succinamate]

Second part, the compound before the results:

SMILES | melting point
CCOC(=O)CC(NC(=O)c1ccc(OC)c(NC(=O)c2sc(NC(=N)N)nc2C)c1)c1ccccc1 (racemic) [Example 78, ethyl (RS)-3-{3-[(2-guanidino-4-methyl-thiazole-5-carbonyl)-amino]-4-methoxy-benzoylamino}-3-phenyl-propionate] | 123 to 126 °C
CCCCCc1nc(NC(=N)N)sc1-c1cccc(NC(=O)CC(CC(=O)O)c2ccccc2)c1 (racemic) [Example 94, rac-4-[3-(2-guanidino-4-pentyl-thiazol-5-yl)-phenylcarbamoyl]-3-phenyl-butyric acid] | 186 to 188 °C (dec.)
CC(C)(C)OC(=O)C[C@H](NC(=O)CNC(=O)c1csc(NC(=O)NCc2ccccn2)n1)C(=O)NCc1ccccn1 [Example 167, tert-butyl (S)-N-pyridin-2-ylmethyl-3-(2-{[2-(3-pyridin-2-ylmethyl-ureido)-thiazole-4-carbonyl]-amino}-acetylamino)-succinamate] | 112 °C
O=C(O)CCCC(=O)CNC(=O)c1csc(NC(=O)NCc2ccccc2)n1 [Example 83, 6-{[2-(3-benzyl-ureido)-thiazole-4-carbonyl]-amino}-5-oxo-hexanoic acid] | 169 °C
CCOC(=O)CC(NC(=O)CNC(=O)c1csc(NC(=N)N)n1)c1ccccc1 (racemic) [Example 22, ethyl rac-3-[2-[(2-guanidino-thiazole-4-carbonyl)-amino]-acetylamino]-3-phenyl-propionate] | 177 to 178 °C (dec.)
CC(=O)O.Cc1nc(N=C2NCCCN2)sc1C(=O)NCCCCC(CC(=O)O)c1ccccc1.Cl (racemic) | 60 to 63 °C
CC(C)(C)OC(=O)C[C@H](NC(=O)CNC(=O)c1csc(NC(=O)NCc2ccccc2)n1)C(=O)Nc1ccccc1C(=O)OC(C)(C)C [Example 135, tert-butyl (S)-2-[2-[2-[[2-(3-benzyl-ureido)-thiazole-4-carbonyl]-amino]-acetylamino]-3-tert-butoxycarbonyl-propionylamino]-benzoate] | 116 °C
CCOC(=O)CC(NC(=O)c1cc(NC(=O)c2sc(NC(=N)N)nc2C)cc(OCc2ccccc2)c1)c1ccccc1 (racemic) [Example 74, ethyl (RS)-3-{3-benzyloxy-5-[(2-guanidino-4-methyl-thiazole-5-carbonyl)-amino]-benzoylamino}-3-phenyl-propionate] | 116 °C
N=C(N)Nc1nc(C(=O)NCC(=O)NC(CC(=O)O)c2ccccc2)cs1 (racemic) (as salt: hydrochloride) [Example 23, rac-3-[2-[(2-guanidino-thiazole-4-carbonyl)-amino]-acetylamino]-3-phenyl-propionic acid] | 202 to 205 °C
CCOC(=O)CC(CC(=O)CNC(=O)c1csc(NC(=O)NCc2ccccc2)n1)C(=O)OCC (racemic) (as salt: succinate) [Example 155, diethyl rac-2-[3-[[2-(3-benzyl-ureido)-thiazole-4-carbonyl]-amino]-2-oxo-propyl]-succinate] | 126 to 129 °C
COC(=O)[C@H](CCCCNC(=O)c1csc(NC(=O)NCc2ccccc2)n1)NC(=O)OC(C)(C)C [Example 145, methyl (S)-6-{[2-(3-benzyl-ureido)-thiazole-4-carbonyl]-amino}-2-tert-butoxycarbonylamino-hexanoate] | 166 °C
Cl.Cl.O=C(O)CC(NC(=O)CNC(=O)c1csc(N=C2NCCN2)n1)c1cccnc1 (centres unmarked) | 170 to 172 °C
Cc1nc(NC(=N)N)sc1C(=O)NCCC(=O)NCCC(=O)O.Cl.Cl | 170 °C
Cc1nc(NC(=N)N)sc1C(=O)NCCCCC(CC(=O)O)c1ccccc1 (racemic) [Example 85, (RS)-7-[(2-guanidino-4-methyl-thiazole-5-carbonyl)-amino]-3-phenyl-heptanoic acid] | 125 °C
O=C(O)C[C@H](NC(=O)CNC(=O)c1csc(NC(=O)NCc2ccccc2)n1)C(=O)NCc1cccnc1 (as salt: trifluoroacetate) [Example 164, (S)-3-[2-[[2-(3-benzyl-ureido)-thiazole-4-carbonyl]-amino]-acetylamino]-N-pyridin-3-ylmethyl-succinamic acid] | 135 °C
O=C(O)C[C@H](NC(=O)CNC(=O)c1csc(NC(=O)NCc2ccccn2)n1)C(=O)NCc1ccccn1 [Example 168, (S)-N-pyridin-2-ylmethyl-3-(2-{[2-(3-pyridin-2-ylmethyl-ureido)-thiazole-4-carbonyl]-amino}-acetylamino)-succinamic acid] | 164 °C
CCOC(=O)CC(NC(=O)CCNC(=O)c1sc(NC(=N)N)nc1C)c1ccccc1 (racemic) [Example 26, ethyl rac-3-[3-[(2-guanidino-4-methyl-thiazole-5-carbonyl)-amino]-propionylamino]-3-phenyl-propionate] | 106 to 107 °C
CC(C)[C@H](NC(=O)[C@H](CC(=O)OC(C)(C)C)NC(=O)CNC(=O)c1csc(NC(=O)NCc2ccccc2)n1)C(=O)OC(C)(C)C [Example 141, tert-butyl (S)-2-[(S)-2-[2-[[2-(3-benzyl-ureido)-thiazole-4-carbonyl]-amino]-acetylamino]-3-tert-butoxycarbonyl-propionylamino]-3-methyl-butyrate] | 108 to 111 °C
CC(C)(C)OC(=O)N[C@H](Cc1ccc(NC(=O)c2csc(NC(=O)NCc3ccccc3)n2)cc1)C(=O)O [Example 166, (R)-3-[4-[[2-(3-benzyl-ureido)-thiazole-4-carbonyl]-amino]-phenyl]-2-tert-butoxycarbonylamino-propionic acid] | 232 °C
O=C(O)CCCC(=O)CNC(=O)c1csc(NC(=O)NCc2ccccn2)n1 (as salt: hydrochloride) [Example 150, 5-oxo-6-{[2-(3-pyridin-2-ylmethyl-ureido)-thiazole-4-carbonyl]-amino}-hexanoic acid] | 199 °C
CC(C)[C@H](NC(=O)[C@H](CC(=O)O)NC(=O)CNC(=O)c1csc(NC(=O)NCc2ccccc2)n1)C(=O)O (as salt: trifluoroacetate) [Example 142, (S)-2-[(S)-2-(2-{[2-(3-benzyl-ureido)-thiazole-4-carbonyl]-amino}-acetylamino)-3-carboxy-propionylamino]-3-methyl-butyric acid] | 93 to 98 °C
